Key:
human orexin 1 receptors = human orexin 1 receptors (Homo sapiens (Human), UniProt O43613); experiment: Calcium Accumulation in Cells (FLIPR), antagonism of orexin A; format: cell-based; conditions: for Ki: antagonism of orexin A, Cheng-Prusoff corrected, read-out: FLIPR hOx1R Ki; for inhibition at 10 µM: measured at a concentration of 10 μM of compound, read-out: FLIPR hOx1R % inhibition value
Description: (§1) Calcium Accumulation in Cells (FLIPR):
Cells expressing human orexin 1 or human orexin 2 receptors, were seeded at 8,000 cells/well in 384 well black-walled clear bottom, poly-D-lysine coated plates. After 24 h, the medium was removed and cells were washed once with phosphate buffered saline and serum-deprived overnight in assay buffer (130 mM NaCl, 5.4 mM KCl, 1.8 mM CaCl2, 0.8 mM MgSO4, 0.9 mM NaH2PO4, 25 mM glucose, 20 mM HEPES, pH 7.4) containing bovine serum albumin (1% w/v).
On the day of the experiment, the cells seeded in black plates were treated with assay buffer containing the Ca^2+ sensitive fluorescent dye Fluo4-AM (2 μM), and probenecid (0.1 mM). After 1 h plates were washed twice with, and resuspended in, assay buffer containing probenecid (0.1 mM) using a multi plate washer. The plates were placed into a FLIPR II (Fluorometric Imaging Plate Reader, Molecular Devices, Sunnyvale, Calif., USA) and baseline fluorescence (fluorescence light units, FLU) was measured (5 measurements, 2 S each; laser excitation 488 nm at 0.6-1 W, CCD camera exposure 0.4 s) before addition of buffer alone (basal) or containing test compounds (either compound of formula (I) or (I′) alone, agonist alone or agonist in the presence of various concentrations of compounds of formula (I) or (I′)). Fluorescence measurements were then continued every 1 S for 120 S followed by every 4 S for 240 S.
(§2) The measurements were typically made in two sequences:
(§3) In the first round, compounds of formula (I) or (I′) were tested alone, to detect possible agonist activity. Compounds of formula I or I′ were tested usually in a concentration range from 10^−9 M to 10^−5 M.
(§4) In the second round, performed one hour later (to allow for equilibration), Orexin A was tested either in the absence (calibration curves, Orexin A agonist controls) or in the presence of compounds of formula (I) or (I′) to determine antagonism.

human orexin 2 receptors = human orexin 2 receptors (Homo sapiens (Human), UniProt O43614); experiment: as above; format: cell-based; conditions: for Ki: antagonism of orexin A, Cheng-Prusoff corrected, read-out: FLIPR hOx2R Ki; for inhibition at 10 µM: measured at a concentration of 10 μM of compound, read-out: FLIPR hOx2R % inhibition value
human orexin 2 receptors, sequence (O43614 whole entry): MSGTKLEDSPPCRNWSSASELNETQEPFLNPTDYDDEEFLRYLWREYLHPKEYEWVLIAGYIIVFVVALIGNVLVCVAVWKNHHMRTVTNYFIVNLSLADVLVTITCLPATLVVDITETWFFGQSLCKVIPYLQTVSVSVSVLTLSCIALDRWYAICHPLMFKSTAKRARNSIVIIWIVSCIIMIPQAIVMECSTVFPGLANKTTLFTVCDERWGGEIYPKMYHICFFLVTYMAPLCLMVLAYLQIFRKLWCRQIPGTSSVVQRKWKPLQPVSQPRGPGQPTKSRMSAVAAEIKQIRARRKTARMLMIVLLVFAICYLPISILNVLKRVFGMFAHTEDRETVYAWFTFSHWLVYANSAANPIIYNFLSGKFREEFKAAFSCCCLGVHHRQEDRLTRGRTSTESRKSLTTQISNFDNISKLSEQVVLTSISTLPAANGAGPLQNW
Description: as §1
Cells expressing human orexin 1 or human orexin 2 receptors, were seeded at 8,000 cells/well in 384 well black-walled clear bottom, poly-D-lysine coated plates.
On the day of the experiment, the cells seeded in black plates were treated with assay buffer containing the Ca^2+ sensitive fluorescent dye Fluo4-AM (2 μM), and probenecid (0.1 mM). After 1 h plates were washed twice with, and resuspended in, assay buffer containing probenecid (0.1 mM) using a multi plate washer. […] Fluorescence measurements were then continued every 1 S for 120 S followed by every 4 S for 240 S.
as §2, §3, §4

human orexin 1 receptors, sequence (O43613 whole entry): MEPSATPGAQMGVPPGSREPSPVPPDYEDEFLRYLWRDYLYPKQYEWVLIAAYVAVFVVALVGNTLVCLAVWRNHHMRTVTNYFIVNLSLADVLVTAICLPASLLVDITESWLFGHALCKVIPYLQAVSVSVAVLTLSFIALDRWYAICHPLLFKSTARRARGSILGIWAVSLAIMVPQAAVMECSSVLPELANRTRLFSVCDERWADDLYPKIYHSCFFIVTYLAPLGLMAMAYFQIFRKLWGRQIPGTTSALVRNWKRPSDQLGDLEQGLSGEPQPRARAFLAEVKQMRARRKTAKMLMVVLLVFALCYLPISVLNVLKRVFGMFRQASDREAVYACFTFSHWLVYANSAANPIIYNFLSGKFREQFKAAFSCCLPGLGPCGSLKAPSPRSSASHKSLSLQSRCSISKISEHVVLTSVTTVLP

| SMILES | Ki (human orexin 1 receptors) | Ki (human orexin 2 receptors) | inhibition at 10 µM (human orexin 1 receptors) | inhibition at 10 µM (human orexin 2 receptors) |
| --- | --- | --- | --- | --- |
| C[C@H](NC(=O)COc1cc(C(F)(F)F)c2c(C3CCCCC3)nn(C)c2n1)c1ccccc1 [Example 1.51, (S)-2-(3-cyclohexyl-1-methyl-4-(trifluoromethyl)-1H-pyrazolo[3,4-b]pyridin-6-yloxy)-N-(1-phenylethyl)acetamide] | 471 nM | 364 nM |  |  |
| COc1ccc(C(C)(C)NC(=O)COc2cc(C)c3c(C4CC4)nn(C)c3n2)cc1 [Example 6.62, 2-(3-cyclopropyl-1,4-dimethyl-1H-pyrazolo[3,4-b]pyridin-6-yloxy)-N-(2-(4-methoxyphenyl)propan-2-yl)acetamide] | 626 nM | 160 nM |  |  |
| COc1ccc2c(c1)C(NC(=O)COc1cc(C)c3c(C4CC4)nn(C)c3n1)CC2 (stereo not shown) [Example 7.9, 2-(3-cyclopropyl-1,4-dimethyl-1H-pyrazolo[3,4-b]pyridin-6-yloxy)-N-(6-methoxy-2,3-dihydro-1H-inden-1-yl)acetamide] | 877 nM | 742 nM |  |  |
| Cn1nc(-c2ccccc2)c2c(C(F)(F)F)cc(OCC(=O)NCc3ccccc3F)nc21 [Example 1.42, N-(2-fluorobenzyl)-2-(1-methyl-3-phenyl-4-(trifluoromethyl)-1H-pyrazolo[3,4-b]pyridin-6-yloxy)acetamide] | 1590 nM | 890 nM |  |  |
| Cn1nc(-c2ccccc2)c2c(C(F)(F)F)cc(OCC(=O)NCc3cccc(F)c3)nc21 [Example 1.8, N-(3-fluorobenzyl)-2-(1-methyl-3-phenyl-4-(trifluoromethyl)-1H-pyrazolo[3,4-b]pyridin-6-yloxy)acetamide] |  | 1620 nM | 39% |  |
| Cc1nn(C)c(C)c1C(C)NC(=O)COc1cc(C)c2c(C(C)C)nn(C)c2n1 (stereo not shown) [Example 6.29, 2-(3-isopropyl-1,4-dimethyl-1H-pyrazolo[3,4-b]pyridin-6-yloxy)-N-(1-(1,3,5-trimethyl-1H-pyrazol-4-yl)ethyl)acetamide] |  |  | 36% | 34% |
| CCn1ccc(C(C)NC(=O)COc2cc(C)c3c(C4CC4)nn(C)c3n2)n1 (stereo not shown) [Example 6.54] |  |  | 44% | 29% |
| COc1ccc(C(C)NC(=O)COc2cc(C)c3c(C(C)C)nn(C)c3n2)cn1 (stereo not shown) [Example 6.28, 2-(3-isopropyl-1,4-dimethyl-1H-pyrazolo[3,4-b]pyridin-6-yloxy)-N-(1-(6-methoxypyridin-3-yl)ethyl)acetamide] |  | 1220 nM | 39% |  |
| C[C@@H](NC(=O)COc1cc(C(F)(F)F)c2c(-c3ccccc3)nn(C)c2n1)c1ccccc1 [Example 1.27, (R)-2-(1-methyl-3-phenyl-4-(trifluoromethyl)-1H-pyrazolo[3,4-b]pyridin-6-yloxy)-N-(1-phenylethyl)acetamide] |  |  | 33% | 35% |
| Cn1nc(-c2ccccc2)c2c(C(F)(F)F)cc(OCC(=O)NC3CCC3)nc21 [Example 1.54, N-cyclobutyl-2-(1-methyl-3-phenyl-4-(trifluoromethyl)-1H-pyrazolo[3,4-b]pyridin-6-yloxy)acetamide] |  |  | 25% | 42% |
| COc1ccc(C(C)NC(=O)COc2cc(C)c3c(-c4cc(C)oc4C)nn(C)c3n2)cn1 (stereo not shown) [Example 6.32, 2-(3-(2,5-dimethylfuran-3-yl)-1,4-dimethyl-1H-pyrazolo[3,4-b]pyridin-6-yloxy)-N-(1-(6-methoxypyridin-3-yl)ethyl)acetamide] | 845 nM | 950 nM |  |  |
| CCOc1ccccc1CNC(=O)COc1cc(C(F)(F)F)c2c(-c3ccccc3)nn(C)c2n1 [Example 1.7, N-(2-ethoxybenzyl)-2-(1-methyl-3-phenyl-4-(trifluoromethyl)-1H-pyrazolo[3,4-b]pyridin-6-yloxy)acetamide] | 1020 nM | 337 nM |  |  |
| Cc1ccc([C@H](C)NC(=O)COc2cc(C)c3c(-c4ccnn4C)nn(C)c3n2)cc1 [Example 4.3, (S)-2-(1,4-dimethyl-3-(1-methyl-1H-pyrazol-5-yl)-1H-pyrazolo[3,4-b]pyridin-6-yloxy)-N-(1-p-tolylethyl)acetamide] | 2680 nM | 2220 nM |  |  |
| COc1ccc2c(c1)CC[C@@H]2NC(=O)C(C)Oc1cc(C)c2c(C3CC3)nn(C)c2n1 (single isomer, unassigned) [Example 6.72, (S or R)-2-(3-cyclopropyl-1,4-dimethyl-1H-pyrazolo[3,4-b]pyridin-6-yloxy)-N-((S)-5-methoxy-2,3-dihydro-1H-inden-1-yl)propanamide] |  |  | 46% | 48% |
| Cc1ccc([C@H](C)NC(=O)COc2cc(C(C)C)c3c(C4CC4)nn(C)c3n2)cc1 [Example 6.11, (S)-2-(3-cyclopropyl-4-isopropyl-1-methyl-1H-pyrazolo[3,4-b]pyridin-6-yloxy)-N-(1-p-tolylethyl)acetamide] | 691 nM | 208 nM |  |  |
| COc1cccc(CNC(=O)COc2cc(C(F)(F)F)c3c(-c4ccccc4)nn(C)c3n2)c1 [Example 1.33, N-(3-methoxybenzyl)-2-(1-methyl-3-phenyl-4-(trifluoromethyl)-1H-pyrazolo[3,4-b]pyridin-6-yloxy)acetamide] | 1650 nM | 427 nM |  |  |
| COc1ccc(C(C)NC(=O)COc2cc(C(F)F)c3c(C4CC4)nn(C)c3n2)cn1 (stereo not shown) [Example 6.10, 2-(3-cyclopropyl-4-(difluoromethyl)-1-methyl-1H-pyrazolo[3,4-b]pyridin-6-yloxy)-N-(1-(6-methoxypyridin-3-yl)ethyl)acetamide] | 516 nM | 184 nM |  |  |
| COc1ccc([C@H](C)N(C)C(=O)COc2cc(C)c3c(C4CC4)nn(C)c3n2)cc1 [Example 6.51] |  | 575 nM | 26% |  |
| Cc1cc(OCC(=O)NC(C)c2cn3ccsc3n2)nc2c1c(C1CC1)nn2C (stereo not shown) [Example 7.25, 2-(3-cyclopropyl-1,4-dimethyl-1H-pyrazolo[3,4-b]pyridin-6-yloxy)-N-(1-(imidazo[2,1-b]thiazol-6-yl)ethyl)acetamide] | 1560 nM | 584 nM |  |  |
| Cc1cc(OCC(=O)NC(C)c2ccccn2)nc2c1c(-c1ccccc1)nn2C (stereo not shown) [Example 1.65, 2-(1,4-dimethyl-3-phenyl-1H-pyrazolo[3,4-b]pyridin-6-yloxy)-N-(1-(pyridin-2-yl)ethyl)acetamide] |  |  | 26% | 30% |
| C[C@H](NC(=O)COc1cc(C(F)(F)F)c2c(-c3ccncc3)nn(C)c2n1)c1ccccc1 [Example 1.25, (S)-2-(1-methyl-3-(pyridin-4-yl)-4-(trifluoromethyl)-1H-pyrazolo[3,4-b]pyridin-6-yloxy)-N-(1-phenylethyl)acetamide] |  |  | 54% | 52% |
| Cn1nc(-c2ccccc2)c2c(C(F)(F)F)cc(OCC(=O)NC3CCCc4ccccc43)nc21 (stereo not shown) [Example 1.56, 2-(1-methyl-3-phenyl-4-(trifluoromethyl)-1H-pyrazolo[3,4-b]pyridin-6-yloxy)-N-(1,2,3,4-tetrahydronaphthalen-1-yl)acetamide] | 378 nM | 165 nM |  |  |
| Cc1cc(OCC(=O)NCC2CCCCC2)nc2c1c(C1CC1)nn2C [Example 7.6, N-(cyclohexylmethyl)-2-(3-cyclopropyl-1,4-dimethyl-1H-pyrazolo[3,4-b]pyridin-6-yloxy)acetamide] |  |  | 18% | < 10% |
| CC(NC(=O)COc1cc(C(F)(F)F)c2c(-c3ccccc3)nn(C)c2n1)c1ccccn1 (stereo not shown) [Example 1.29, 2-(1-methyl-3-phenyl-4-(trifluoromethyl)-1H-pyrazolo[3,4-b]pyridin-6-yloxy)-N-(1-(pyridin-2-yl)ethyl)acetamide] | 2670 nM |  |  | 44% |
| Cc1cc(OCC(=O)NC2CCc3cc(F)ccc32)nc2c1c(C1CC1)nn2C (stereo not shown) [Example 6.40, 2-(3-cyclopropyl-1,4-dimethyl-1H-pyrazolo[3,4-b]pyridin-6-yloxy)-N-(5-fluoro-2,3-dihydro-1H-inden-1-yl)acetamide] |  | 589 nM | 21% |  |
| Cc1cccc(C(C)NC(=O)COc2cc(C)c3c(C4CC4)nn(C)c3n2)c1 (stereo not shown) [Example 7.29, 2-(3-cyclopropyl-1,4-dimethyl-1H-pyrazolo[3,4-b]pyridin-6-yloxy)-N-(1-m-tolylethyl)acetamide] | 1800 nM | 900 nM |  |  |
